Source: ChEMBL document CHEMBL5113420, “Selective inhibition of histone deacetylase 3 by novel hydrazide based small molecules as therapeutic intervention for the treatment of cancer” (Eur J Med Chem, 2022)
“And” between values parts separate entries of the source, which are not always exact repeats. Equal entries are not always repeated. The source made the active and inactive calls. The rule behind the calls is not given here.

Experiments:
[1] = Toxicity in Balb/c mouse implanted with mouse 4T1 Luc cells assessed as spleen tissue damage at 15 mg/kg by H and E staining; assay type: organism-based; conditions: in vivo
[2] = Half life in Wistar rat at 25 mg/kg, iv measured upto 24 hrs by HPLC analysis; assay type: ADME, organism-based; conditions: in vivo
[3] = Half life in Wistar rat at 15 mg/kg, iv measured upto 24 hrs by HPLC analysis; assay type: ADME, organism-based; conditions: in vivo
[4] = AUCt in Wistar rat at 25 mg/kg, iv measured upto 24 hrs by HPLC analysis; assay type: ADME, organism-based; set-up: dose 25 mg/kg, time < 24 hrs, route iv; conditions: in vivo
[5] = MRT in Wistar rat at 25 mg/kg, iv measured upto 24 hrs by HPLC analysis; assay type: ADME, organism-based; conditions: in vivo
[6] = Apparent volume of distribution during terminal phase in Wistar rat at 25 mg/kg, ip measured upto 24 hrs by HPLC analysis; assay type: ADME, organism-based; conditions: in vivo
4T1 [7] = assay: Antitumor activity against mouse 4T1 Luc cells implanted in Balb/c mouse assessed as decrease in Ki-67 in tumor tissue at 15 to 25 mg/kg by immunohistochemical analysis; assay type: functional, organism-based; conditions: dose 15-25 mg/kg
[8] = Toxicity in Balb/c mouse implanted with mouse 4T1 Luc cells assessed as kidney tissue damage at 15 mg/kg by H and E staining; assay type: organism-based; conditions: in vivo
4T1 [9] = assay: Cytotoxicity against mouse 4T1 cells assessed as increase in chromosomal condensation at 1.92 uM measured after 48 hrs by acridine orange and DAPI staining based fluorescence microscope assay; assay type: functional, cell-based
4T1 [10] = assay: Cytotoxicity against mouse 4T1 cells assessed as increase in chromosomal condensation at 8.4 uM measured after 48 hrs by acridine orange and DAPI staining based fluorescence microscope assay; assay type: functional, cell-based
4T1 [11] = assay: Induction of apoptosis in mouse 4T1 Luc cells implanted in Balb/c mouse reduction in EGFR expression at 15 to 25 mg/kg incubated for 24 hrs by Western blot analysis; assay type: functional, organism-based; conditions: dose 15-25 mg/kg
[12] = Toxicity in Balb/c mouse implanted with mouse 4T1-luc cells assessed as mortality at 15 to 25 mg/kg, ip; assay type: organism-based; conditions: in vivo, dose 15-25 mg/kg
[13] = Toxicity in Balb/c mouse implanted with mouse 4T1-luc cells assessed as weight loss at 15 mg/kg, ip; assay type: organism-based; conditions: in vivo
[14] = Half life in Wistar rat at 15 mg/kg, ip measured upto 24 hrs by HPLC analysis; assay type: ADME, organism-based; conditions: in vivo
4T1 [15] = assay: Antitumor activity against mouse 4T1 Luc cells implanted in Balb/c mouse assessed as increase in fluorescence at 25 mg/kg using luciferin-D as substrate at 100 mg/kg, ip measured on day 10 and 21 by IVIS Lumina III analysis; assay type: functional, organism-based
[16] = MRT in Wistar rat at 15 mg/kg, ip measured upto 24 hrs by HPLC analysis; assay type: ADME, organism-based; conditions: in vivo
[17] = Tmax in Wistar rat at 15 mg/kg, iv measured upto 24 hrs by HPLC analysis; assay type: ADME, organism-based; conditions: in vivo
[18] = MRT in Wistar rat at 15 mg/kg, iv measured upto 24 hrs by HPLC analysis; assay type: ADME, organism-based; conditions: in vivo
[19] = AUCt in Wistar rat at 15 mg/kg, iv measured upto 24 hrs by HPLC analysis; assay type: ADME, organism-based; set-up: time < 24 hrs, dose 15 mg/kg, route iv; conditions: in vivo
[20] = Tmax in Wistar rat at 15 mg/kg, ip measured upto 24 hrs by HPLC analysis; assay type: ADME, organism-based; conditions: in vivo
4T1 [21] = assay: Induction of apoptosis in mouse 4T1 Luc cells implanted in Balb/c mouse assessed as upregulation of caspase 7 level at 15 to 25 mg/kg incubated for 24 hrs by Western blot analysis; assay type: functional, organism-based; conditions: dose 15-25 mg/kg
4T1 [22] = assay: Antitumor activity against mouse 4T1-luc cells Balb/c mouse assessed as reduction in tumor volume at 25 mg/kg, ip measured once 3 days for 21 days (reference value: 49.16 to 1032.50 mm^3); assay type: functional; conditions: time 3 day
[23] = AUC (0 to infinity) in Wistar rat at 15 mg/kg, iv measured upto 24 hrs by HPLC analysis; assay type: ADME, organism-based; set-up: time < 24 hrs, dose 15 mg/kg, route iv; conditions: in vivo
[24] = Apparent volume of distribution during terminal phase in Wistar rat at 15 mg/kg, ip measured upto 24 hrs by HPLC analysis; assay type: ADME, organism-based; conditions: in vivo
[25] = Cmax in Wistar rat at 15 mg/kg, ip measured upto 24 hrs by HPLC analysis; assay type: ADME, organism-based; set-up: dose 15 mg/kg, time < 24 hrs, route ip; conditions: in vivo
[26] = Cmax in Wistar rat at 15 mg/kg, iv measured upto 24 hrs by HPLC analysis; assay type: ADME, organism-based; set-up: time < 24 hrs, dose 15 mg/kg, route iv; conditions: in vivo
Mus musculus = assay: Antitumor activity against mouse 4T1 Luc cells implanted in Balb/c mouse assessed as increase in animal survival at 15 mg/kg measured after 21 days; assay type: functional, organism-based; conditions: time 21.0 day
4T1 [27] = assay: Induction of apoptosis in mouse 4T1 Luc cells implanted in Balb/c mouse assessed as increase in ROS generation at 25 mg/kg by fluorescent microscopy analysis; assay type: functional, organism-based
[28] = Tmax in Wistar rat at 25 mg/kg, iv measured upto 24 hrs by HPLC analysis; assay type: ADME, organism-based; conditions: in vivo
4T1 [29] = assay: Antitumor activity against mouse 4T1 Luc cells implanted in Balb/c mouse assessed as reduction in metastasis at 15 to 25 mg/kg measured after 21 days by Kaplan-Meier method; assay type: functional, organism-based; conditions: dose 15-25 mg/kg, time 21.0 day
[30] = Toxicity in Balb/c mouse implanted with mouse 4T1 Luc cells assessed as heart tissue damage at 15 mg/kg by H and E staining; assay type: organism-based; conditions: in vivo
4T1 [31] = assay: Induction of apoptosis in mouse 4T1 Luc cells implanted in Balb/c mouse assessed as increase in ROS generation at 15 mg/kg by fluorescent microscopy analysis; assay type: functional, organism-based
[32] = AUC (0 to infinity) in Wistar rat at 15 mg/kg, ip measured upto 24 hrs by HPLC analysis; assay type: ADME, organism-based; set-up: time < 24 hrs, dose 15 mg/kg, route ip; conditions: in vivo
4T1 [33] = assay: Induction of apoptosis in mouse 4T1 Luc cells implanted in Balb/c mouse reduction in CD44 expression at 15 to 25 mg/kg incubated for 24 hrs by Western blot analysis; assay type: functional, organism-based; conditions: dose 15-25 mg/kg
[34] = Cmax in Wistar rat at 25 mg/kg, iv measured upto 24 hrs by HPLC analysis; assay type: ADME, organism-based; set-up: dose 25 mg/kg, time < 24 hrs, route iv; conditions: in vivo
4T1 [35] = assay: Induction of apoptosis in mouse 4T1 Luc cells implanted in Balb/c mouse assessed as increase in cytochrome c level at 15 to 25 mg/kg incubated for 24 hrs by Western blot analysis; assay type: functional, organism-based; conditions: dose 15-25 mg/kg
4T1 [36] = assay: Induction of apoptosis in mouse 4T1 Luc cells implanted in Balb/c mouse assessed as upregulation of caspase 3 level at 15 to 25 mg/kg incubated for 24 hrs by Western blot analysis; assay type: functional, organism-based; conditions: dose 15-25 mg/kg

SMILES: CCCNNC(=O)c1ccc(Nc2ccccc2)cc1
- Activity [1]: Non-Toxic
- half-life [2]: 2.62 h
- half-life [3]: 2.19 h
- AUC(0-t) at 24 h [4]: 200000 ng·h/mL and 742 µM·h
- MRT [5]: 5.13 h
- Vz/F [6]: 3.27 (mg/kg)/(ug/ml) and 2.01 (mg/kg)/(uM)
- Activity (4T1 [7]): Active
- Activity [8]: Non-Toxic
- Activity (4T1 [9]): Active
- Activity (4T1 [10]): Active
- Activity (4T1 [11]): Active
- Activity [12]: Non-Toxic
- Activity [13]: Non-Toxic
- half-life [14]: 3.41 h
- Activity (4T1 [15]): Active
- MRT [16]: 4.16 h
- Tmax [17]: 0.5 h
- MRT [18]: 5.69 h
- AUC(0-t) at 24 h [19]: 159000 ng·h/mL and 592 µM·h
- Tmax [20]: 2 h
- Activity (4T1 [21]): Active
- Activity (4T1 [22]): 51.83 mm3
- AUC(0-inf) [23]: 160000 ng·h/mL and 593 µM·h
- Vz/F [24]: 2.16 (mg/kg)/(ug/ml) and 1.44 (mg/kg)/(uM)
- Cmax [25]: 8340 ng/mL and 31 µM
- Cmax [26]: 26700 ng/mL and 99.3 µM
- Activity (Mus musculus): Active
- Activity (4T1 [27]): Active
- Tmax [28]: 0.5 h
- Activity (4T1 [29]): Active
- Activity [30]: Non-Toxic
- Activity (4T1 [31]): Active
- AUC(0-inf) [32]: 29300 ng·h/mL and 109 µM·h
- Activity (4T1 [33]): Active
- Cmax [34]: 32100 ng/mL and 120 µM
- Activity (4T1 [35]): Active
- Activity (4T1 [36]): Active
